{"source": "patent US20120220562A1", "about": "“Anti-Viral Compounds” (ABBOTT LABAORATORIES, priority 2011, published 2012)"}
{"tested_on": "HCV 1b-Con1 replicon", "experiment": "HCV 1b-Con1 replicon assay in the presence of 5% FBS", "format": "cell-based", "settings": "Hepatitis C virus", "units": {"EC50": "pM"}}
{"smiles": "COC(=O)N[C@H](C(=O)N1CCC[C@H]1c1nc2ccc([C@H]3CC[C@H](c4ccc5nc([C@@H]6CCCN6C(=O)[C@@H](NC(=O)OC)C(C)C)[nH]c5c4)N3c3cc(F)c(N4CCC(c5ccc6ccccc6c5)CC4)c(F)c3)cc2[nH]1)C(C)C", "note": "[Example 2.12, methyl {(2S)-1-[(2S)-2-{5-[(2R,5R)-1-{3,5-difluoro-4-[4-(2-naphthyl)piperidin-1-yl]phenyl}-5-{2-[(2S)-1-{(2S)-2-[(methoxycarbonyl)amino]-3-methylbutanoyl}pyrrolidin-2-yl]-1H-benzimidazol-5-yl}pyrrolidin-2-yl]-1H-benzimidazol-2-yl}pyrrolidin-1-yl]-3-methyl-1-oxobutan-2-yl}carbamate]", "EC50": "< 100"}
{"smiles": "COC(=O)N[C@H](C(=O)N1CCC[C@H]1c1nc2cc([C@H]3CC[C@H](c4ccc5[nH]c([C@@H]6CCCN6C(=O)[C@@H](NC(=O)OC)C6CCOCC6)nc5c4)N3c3cc(F)c(N4CCCCC4)c(F)c3)ccc2[nH]1)C1CCOCC1", "note": "[Example 3.18, dimethyl ({(2R,5R)-1-[3,5-difluoro-4-(piperidin-1-yl)phenyl]pyrrolidine-2,5-diyl}bis{1H-benzimidazole-5,2-diyl(2S)pyrrolidine-2,1-diyl [(1S)-2-oxo-1-(tetrahydro-2H-pyran-4-yl)ethane-2,1-diyl]})biscarbamate]", "EC50": "< 100"}
{"smiles": "COC(=O)N[C@H](C(=O)N1[C@H](c2nc3cc([C@H]4CC[C@H](c5cc6nc([C@@H]7C[C@@H]8CCC[C@@H]8N7C(=O)[C@@H](NC(=O)OC)C(C)C)[nH]c6cc5F)N4c4cc(F)c(N5CCCCC5)c(F)c4)c(F)cc3[nH]2)C[C@@H]2CCC[C@@H]21)C(C)C", "note": "[Example 3.37, methyl {(2S)-1-[(2S,3aS,6aS)-2-{5-[(2R,5R)-1-[3,5-difluoro-4-(piperidin-1-yl)phenyl]-5-{6-fluoro-2-[(2S,3aS,6aS)-1-{(2S)-2-[(methoxycarbonyl)amino]-3-methylbutanoyl}octahydrocyclopenta[b]pyrrol-2-yl]-1H-benzimidazol-5-yl}pyrrolidin-2-yl]-6-fluoro-1H-benzimidazol-2-yl}hexahydrocyclopenta[b]pyrrol-1(2H)-yl]-3-methyl-1-oxobutan-2-yl}carbamate]", "EC50": "< 100"}
{"smiles": "COC(=O)N[C@H](C(=O)N1CCC[C@H]1c1nc2cc([C@H]3CC[C@H](c4ccc5[nH]c([C@@H]6CCCN6C(=O)[C@@H](NC(=O)OC)C(C)C)nc5c4)N3c3ccc(Cl)cc3)ccc2[nH]1)C(C)C", "note": "[Example 3.4, methyl {(2S)-1-[(2S)-2-{5-[(2R,5R)-1-(4-chlorophenyl)-5-{2-[(2S)-1-{(2S)-2-[(methoxycarbonyl)amino]-3-methylbutanoyl}pyrrolidin-2-yl]-1H-benzimidazol-5-yl}pyrrolidin-2-yl]-1H-benzimidazol-2-yl}pyrrolidin-1-yl]-3-methyl-1-oxobutan-2-yl}carbamate]", "EC50": "< 100"}
{"smiles": "COC(=O)N[C@H](C(=O)N1CCC[C@H]1c1nc2cc([C@H]3CC[C@@H](c4cc5[nH]c([C@@H]6CCCN6C(=O)[C@@H](NC(=O)OC)C(C)C)nc5cc4F)N3c3ccc(C(C)(C)C)cc3)c(F)cc2[nH]1)C(C)C", "note": "[Example 6.2, methyl {(2S)-1-[(2S)-2-{5-[(2R,5S)-1-(4-tert-butylphenyl)-5-{5-fluoro-2-[(2S)-1-(2S)-2-[(methoxycarbonyl)amino]-3-methylbutanoylpyrrolidin-2-yl]-1H-benzimidazol-6-yl}pyrrolidin-2-yl]-6-fluoro-1H-benzimidazol-2-yl}pyrrolidin-1-yl]-3-methyl-1-oxobutan-2-yl}carbamate]", "EC50": "< 100"}
{"smiles": "COC(=O)N[C@H](C(=O)N1CCC[C@H]1c1nc2cc([C@H]3CC[C@H](c4cc5nc([C@@H]6CCCN6C(=O)[C@@H](NC(=O)OC)C6CCOCC6)[nH]c5cc4F)N3c3cc(F)c(N4CCCCC4)c(F)c3)c(F)cc2[nH]1)C1CCOCC1", "note": "[Example 3.35, dimethyl ({(2R,5R)-1-[3,5-difluoro-4-(piperidin-1-yl)phenyl]pyrrolidine-2,5-diyl}bis {(6-fluoro-1H-benzimidazole-5,2-diyl)(2S)pyrrolidine-2,1-diyl[(1S)-2-oxo-1-(tetrahydro-2H-pyran-4-yl)ethane-2,1-diyl]})biscarbamate]", "EC50": "< 100"}
{"smiles": "COC(=O)N[C@H](C(=O)N1CCC[C@H]1c1nc2cc([C@H]3CC[C@H](c4cc5nc([C@@H]6CCCN6C(=O)[C@@H](NC(=O)OC)C6CCOCC6)[nH]c5cc4F)N3c3cc(F)c(N4CCC(c5ccccc5)CC4)c(F)c3)c(F)cc2[nH]1)C1CCOCC1", "note": "[Example 4.39, dimethyl ({(2R,5R)-1-[3,5-difluoro-4-(4-phenylpiperidin-1-yl)phenyl]pyrrolidine-2,5-diyl}bis{(6-fluoro-1H-benzimidazole-5,2-diyl)(2S)pyrrolidine-2,1-diyl[(1S)-2-oxo-1-(tetrahydro-2H-pyran-4-yl)ethane-2,1-diyl]})biscarbamate]", "EC50": "< 100"}
{"smiles": "COC(=O)N[C@H](C(=O)N1CCC[C@H]1c1nc2cc([C@H]3CC[C@H](c4cc5nc([C@@H]6CCCN6C(=O)[C@@H](NC(=O)OC)C(C)C)[nH]c5cc4F)N3c3cc(F)c(N4CCO[C@@H](c5ccccc5)C4)c(F)c3)c(F)cc2[nH]1)C(C)C", "note": "[Example 4.55, methyl {(2S)-1-[(2S)-2-{5-[(2R,5R)-1-{3,5-difluoro-4-[(2S)-2-phenylmorpholin-4-yl]phenyl}-5-{6-fluoro-2-[(2S)-1-{(2S)-2-[(methoxycarbonyl)amino]-3-methylbutanoyl}pyrrolidin-2-yl]-1H-benzimidazol-5-yl}pyrrolidin-2-yl]-6-fluoro-1H-benzimidazol-2-yl}pyrrolidin-1-yl]-3-methyl-1-oxobutan-2-yl}carbamate]", "EC50": "< 100"}
{"smiles": "COC(=O)N[C@H](C(=O)N1C[C@@H](F)C[C@H]1c1nc2cc([C@H]3CC[C@H](c4ccc5[nH]c([C@@H]6C[C@H](F)CN6C(=O)[C@@H](NC(=O)OC)C(C)C)nc5c4)N3c3cc(F)c(N4CCCCC4)c(F)c3)ccc2[nH]1)C(C)C", "note": "[Example 3.8, methyl {(2S)-1-[(2S,4S)-2-{5-[(2R,5R)-1-[3,5-difluoro-4-(piperidin-1-yl)phenyl]-5-{2-[(2S,4S)-4-fluoro-1-{(2S)-2-[(methoxycarbonyl)amino]-3-methylbutanoyl}pyrrolidin-2-yl]-1H-benzimidazol-5-yl}pyrrolidin-2-yl]-1H-benzimidazol-2-yl}-4-fluoropyrrolidin-1-yl]-3-methyl-1-oxobutan-2-yl}carbamate]", "EC50": "< 100"}
{"smiles": "O=C([C@@H]1CCCO1)N1CCC[C@H]1c1nc2cc([C@H]3CC[C@H](c4ccc5[nH]c([C@@H]6CCCN6C(=O)[C@@H]6CCCO6)nc5c4)N3c3cc(F)c(N4CCC(c5ccccc5)CC4)c(F)c3)ccc2[nH]1", "note": "[Example 3.31, ({(2R,5R)-1-[3,5-difluoro-4-(4-phenylpiperidin-1-yl)phenyl]pyrrolidine-2,5-diyl}bis[1H-benzimidazole-5,2-diyl(2S)pyrrolidine-2,1-diyl])bis[(2S)-tetrahydrofuran-2-ylmethanone]]", "EC50": "< 100"}
{"smiles": "COC(=O)N[C@H](C(=O)N1CCC[C@H]1c1nc2cc([C@H]3CC[C@H](c4cc5nc([C@@H]6CCCN6C(=O)[C@@H](NC(=O)OC)C(C)C)[nH]c5cc4F)N3c3cc(F)c(N4CCC5(CCc6ccccc65)CC4)c(F)c3)c(F)cc2[nH]1)C(C)C", "note": "[Example 4.31, methyl {(2S)-1-[(2S)-2-{5-[(2R,5R)-1-[4-(2,3-dihydro-1′H-spiro[indene-1,4′-piperidin]-1′-yl)-3,5-difluorophenyl]-5-{6-fluoro-2-[(2S)-1-{(2S)-2-[(methoxycarbonyl)amino]-3-methylbutanoyl}pyrrolidin-2-yl]-1H-benzimidazol-5-yl}pyrrolidin-2-yl]-6-fluoro-1H-benzimidazol-2-yl}pyrrolidin-1-yl]-3-methyl-1-oxobutan-2-yl}carbamate]", "EC50": "< 100"}
{"smiles": "COC(=O)N[C@H](C(=O)N1CCC[C@H]1c1nc2cc([C@H]3CC[C@H](c4ccc5[nH]c([C@@H]6CCCN6C(=O)[C@@H](NC(=O)OC)C(C)C)nc5c4)N3c3cc(F)c(N4CCN(c5ccccc5)CC4)c(F)c3)ccc2[nH]1)C(C)C", "note": "[Example 4.58, methyl {(2S)-1-[(2S)-2-{5-[(2R,5R)-1-[3,5-difluoro-4-(4-phenylpiperazin-1-yl)phenyl]-5-{2-[(2S)-1-{(2S)-2-[(methoxycarbonyl)amino]-3-methylbutanoyl}pyrrolidin-2-yl]-1H-benzimidazol-5-yl}pyrrolidin-2-yl]-1H-benzimidazol-2-yl}pyrrolidin-1-yl]-3-methyl-1-oxobutan-2-yl}carbamate]", "EC50": "< 100"}
{"smiles": "COC(=O)N[C@H](C(=O)N1CCC[C@H]1c1nc2cc([C@H]3CC[C@H](c4cc5nc([C@@H]6CCCN6C(=O)[C@@H](NC(=O)OC)C6CCOCC6)[nH]c5cc4F)N3c3cc(F)c(N4CCC(C(C)(C)C)CC4)c(F)c3)c(F)cc2[nH]1)C1CCOCC1", "note": "[Example 6.14, dimethyl ({(2R,5R)-1-[4-(4-tert-butylpiperidin-1-yl)-3,5-difluorophenyl]pyrrolidine-2,5-diyl}bis{(6-fluoro-1H-benzimidazole-5,2-diyl)(2S)pyrrolidine-2,1-diyl [(1S)-2-oxo-1-(tetrahydro-2H-pyran-4-yl)ethane-2,1-diyl]}) biscarbamate]", "EC50": "< 100"}
{"smiles": "COC(=O)N[C@H](C(=O)N1CCC[C@H]1c1nc2ccc([C@H]3CC[C@H](c4ccc5nc([C@@H]6CCCN6C(=O)[C@@H](NC(=O)OC)C(C)C)[nH]c5c4)N3c3ccc(OC4CCCC4)c(F)c3)cc2[nH]1)C(C)C", "note": "[Example 4.1, methyl {(2S)-1-[(2S)-2-{6-[(2R,5R)-1-[4-(cyclopentyloxy)-3-fluorophenyl]-5-{2-[(2S)-1-{(2S)-2-[(methoxycarbonyl)amino]-3-methylbutanoyl}pyrrolidin-2-yl]-1H-benzimidazol-6-yl}pyrrolidin-2-yl]-1H-benzimidazol-2-yl}pyrrolidin-1-yl]-3-methyl-1-oxobutan-2-yl}carbamate]", "EC50": "< 100"}
{"smiles": "COC(=O)N[C@H](C(=O)N1[C@H](c2nc3cc([C@H]4CC[C@H](c5cc6nc([C@@H]7C[C@@H]8CCC[C@@H]8N7C(=O)[C@@H](NC(=O)OC)C7CCCC7)[nH]c6cc5F)N4c4cc(F)c(N5CCCCC5)c(F)c4)c(F)cc3[nH]2)C[C@@H]2CCC[C@@H]21)C1CCCC1", "note": "[Example 3.40, dimethyl ({(2R,5R)-1-[3,5-difluoro-4-(piperidin-1-yl)phenyl]pyrrolidine-2,5-diyl}bis{(6-fluoro-1H-benzimidazole-5,2-diyl)(2S,3aS,6aS)hexahydrocyclopenta[b]pyrrole-2,1(2H)-diyl[(1S)-1-cyclopentyl-2-oxoethane-2,1-diyl]})biscarbamate]", "EC50": "< 100"}
